Values joined by “and” are separate entries in the source; they are usually repeats but may differ in a detail not shown here. Equal entries are not always repeated.
Columns and labels:
[1] = tested on: vincristine (VCR)-resistant mouse leukemia (P388/VCR) cells; experiment: Antitumor agent potentiating effect in vincristine-resistant tumor bearing mouse (Example 11, i.p. 5 days); type: in vivo
Protocol: (§1) The potentiating effect of the antitumor agent (T/V) % was determined according to the formula shown below. Verapamil was employed as the positive Control compound. […] In the Tables, Compound 1 is the compound obtained in Example 1, Compound 2 that obtained in Example 2, Compound 3 that obtained in Example 3, Compound 4 that obtained in Example 4, and Compound 5 that obtained in Example 5. [formula]

rat rectum smooth muscle = experiment: Inhibitory effects on potassium contracture in rat rectum smooth muscle; type: cell-based; details: 5 min, K contraction 5.6 to 56.0 mM, read-out: Inhibition ratio; for inhibition at 0.1 µM: 10^-7 M; for inhibition at 0.01 µM: 10^-8 M
Protocol: Rat rectum (about 1.5 cm) was isolated and suspended in a Magnus tube. A Locke solution was employed as the nutrient solution, and a contraction of the intestinum rectum was caused by changing the potassium (K) concentration of this solution from 5.6 mmol (mM) to 56.0 mM. This contraction was a contraction through a membrane dependent Ca-channel mediated contraction based on depolarization by a K concentration change. The contraction was recorded by an FD-transducer and polygraph. The compounds of the present invention were permitted to act 5 minutes before changing the K concentration, and simultaneously with changing the K concentration. […] A judgement was made 5 minutes after changing the K concentration, and the difference in contraction before the concentration change was indicated as an inhibition % value. Verapamil and nicardipine were employed as the positive control compound .

ICR mice = experiment: acute toxicity test; details: mouse, in vivo;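 further: intraperitoneal dosing with deaths counted over 10 days of observation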
Protocol: Male 6-week-old ICR mice were divided into groups of 2 to 5 mice per group. […] The drugs to be tested were administered in varying amounts of 250 to 2000 mg/kg to 5 or 7 groups (a geometrical series of .cent.2), at a dose volume of 10 ml/kg. In the Table, the respective compounds have the same meanings as described above.

[2] = tested on: spontaneously hypertensive rats (SHR); details: rat, in vivo, ip, 100 mg/kg
Protocol: The systolic blood pressure was measured by using spontaneously hypertensive rats (SHR), which are a model of hypertension when examine the hypotensive activities of the compounds of the present invention and the positive Control compound. The rats were warmed for 5 minutes in a warming box at 55° C., and their blood pressure then measured by a tail cuff plethysmograph. The compounds of the present invention were administered singly and intraperitoneally at a dose of 100 mg/kg and the positive Control compound was administered singly and intraperitoneally at a dose of 10 mg/kg. […] Blood pressure measurements were taken before administration and 60 minutes after administration. Nicardipine was employed as the positive Control compound.

[3] = tested on: vincristine (VCR)-resistant mouse leukemia (P388/VCR) cells; experiment: Antitumor agent potentiating effect in vincristine-resistant tumor bearing mouse (Example 12, i.p.); type: in vivo
Protocol: as §1
The potentiating effect of the antitumor agent (T/V) % was determined as described above (Example 11). Nicardipine was employed as the positive Control compound, and was administered intraperitoneally for 10 days. […] In the Tables, Compound 6 is the compound obtained in Example 6, Compound 7 that obtained in Example 7, and Compound 8 that obtained in Example 8.

[4] = tested on: vincristine (VCR)-resistant mouse leukemia (P388/VCR) cells; experiment: Antitumor agent potentiating effect in vincristine-resistant tumor bearing mouse (Example 13, oral compound, 10 days); type: in vivo
[5] = tested on: antitumor drug sensitive cells P388/S of mouse P388 leukemia cells; experiment: VCR alone in mice bearing drug sensitive P388/S leukemia (Example 13, Table 8(B)); type: in vivo
Protocol: The compounds of this invention were administered orally after the treatment described above, and VCR was administered as described above. The progress thereof was observed and the survival days for respective animals were determined to obtain the survival ratio (T/C) % relative to the Control. The antitumor agent potentiating effect (T/V) % was determined as described above. In the Table, Compound 8 is the compound obtained in Example 8.

[6] = compound 100 mg/kg i.p. + VCR 30 μg/kg i.p.
[7] = compound alone 100 mg/kg i.p., no VCR
[8] = VCR 30 μg/kg i.p. alone (reference = 100)

SMILES	Potentiating effect T/V [1, 6] [%]	Survival Days (Mean ± SD) [1, 6] [days]	Survival ratio T/C [1, 6] [%]	Survival Days (Mean ± SD) [1, 7] [days]	Survival ratio T/C [1, 7] [%]	inhibition at 0.1 µM (rat rectum smooth muscle) [%]	Mortality (ICR mice)	inhibition at 0.01 µM (rat rectum smooth muscle) [%]	Blood pressure change [2] [mmHg]	Systolic Blood Pressure 60 minutes after administration [2] [mmHg]	further results
CC1=C(C(=O)OCc2ccccn2)C(C2=COCCO2)C(C(=O)OCc2ccccn2)=C(C)N1 [Compound 1, bis(2-pyridylmethyl) 4-[2-(5,6-dihydro-p-dioxinyl)]-2,6-dimethyl-1,4-dihydropyridine-3,5-dicarboxylate]	116	14.5 ± 1.6	121	12.2 ± 0.8	102	11.2	0/2	–	–	–	–
CC1=C(C(=O)OCc2cccc(C)n2)C(C2=COCCO2)C(C(=O)OCc2cccc(C)n2)=C(C)N1 [Compound 2]	130	13.7 ± 1.0	140	10.3 ± 0.5	105	-2.1	0/4 and 1/5 and 0/5	-5.6	-15	204	–
CC1=C(C(=O)OCCCc2cccnc2)C(C2=COCCO2)C(C(=O)OCCCc2cccnc2)=C(C)N1 [Compound 3, bis[3-(3-pyridyl)propyl]4-[2-(5,6-dihydro-p-dioxinyl)]-2,6-dimethyl-1,4-dihydropyridine-3,5-dicarboxylate]	130	13.7 ± 1.5	140	10.3 ± 0.5	105	-4.2	4/4 and 3/4 and 1/5 and 2/5 and 0/5	-11.5	–	–	–
CCc1ccc(COC(=O)C2=C(C)NC(C)=C(C(=O)OCc3ccc(CC)cn3)C2C2=COCCO2)nc1 [Compound 5, bis[2-(5-ethylpyridyl)methyl]4-[2-(5,6-dihydro-p-dioxinyl)-]2,6-dimethyl-1,4-dihydropyridine-3,5-dicarboxylate]	131	14.8 ± 1.2	136	–	–	–	0/2 and 0/3	–	-34	187	–
CC1=C(C(=O)OCc2ccccn2)C(C2=CSCCS2)C(C(=O)OCc2ccccn2)=C(C)N1 [Compound 6, bis(2-pyridylmethyl) 4-[2-(5,6-dihydro-1,4-dithiinyl)]-2,6-dimethyl-1,4-dihydropyridine-3,5-dicarboxylate]	–	–	–	–	–	–	0/2 and 0/3	–	-30	191	Potentiating effect T/V [3, 6]: 125%; Survival Days (Mean ± SD) [3, 6]: 14.2 ± 1.2 days; Survival ratio T/C [3, 6]: 138%; Survival Days (Mean ± SD) [3, 7]: 10.8 ± 0.8 days; Survival ratio T/C [3, 7]: 105%
CC[C@]1(O)C[C@H]2CN(CCc3c([nH]c4ccccc34)[C@@](C(=O)OC)(c3cc4c(cc3OC)N(C=O)[C@H]3[C@@](O)(C(=O)OC)[C@H](OC(C)=O)[C@]5(CC)C=CCN6CC[C@]43[C@@H]65)C2)C1 [VCR, vincristine, reference compound]	–	–	–	–	–	–	–	–	–	–	Survival Days (Mean ± SD) ([1]; VCR 30 μg/kg i.p. alone): 12.5 ± 1.4 days and 10.5 ± 0.8 days and 11.3 ± 1.0 days and 11.8 ± 1.3 days; Survival ratio T/C ([1]; VCR 30 μg/kg i.p. alone): 104%; Potentiating effect T/V [1, 8]: 100%; Survival Days (Mean ± SD) ([3]; VCR 30 μg/kg i.p. alone): 11.4 ± 1.0 days and 9.8 ± 0.8 days and 11.0 ± 1.8 days; Survival ratio T/C ([3]; VCR 30 μg/kg i.p. alone): 100%; Potentiating effect T/V [3, 8]: 100%; Survival Days (Mean ± SD) ([4]; VCR 10 μg/kg/day i.p. alone): 9.4 ± 0.7 days; Survival ratio T/C ([4]; VCR 10 μg/kg/day i.p. alone): 99%; Potentiating effect T/V ([4]; VCR 10 μg/kg/day i.p. alone (reference = 100)): 100%; Survival Days (Mean ± SD) ([4]; VCR 30 μg/kg/day i.p. alone): 10.3 ± 1.5 days; Potentiating effect T/V ([4]; VCR 30 μg/kg/day i.p. alone (reference = 100)): 100%; Survival Days (Mean ± SD) ([4]; VCR 100 μg/kg/day i.p. alone): 10.4 ± 0.9 days; Potentiating effect T/V ([4]; VCR 100 μg/kg/day i.p. alone (reference = 100)): 100%; Survival Days (Mean ± SD) ([5]; VCR 10 μg/kg/day alone): 11.8 ± 0.8 days; Survival ratio T/C ([5]; VCR 10 μg/kg/day alone): 144%; Survival Days (Mean ± SD) ([5]; VCR 30 μg/kg/day alone): 13.3 ± 0.9 days; Survival ratio T/C ([5]; VCR 30 μg/kg/day alone): 162%; Survival Days (Mean ± SD) ([5]; VCR 100 μg/kg/day alone): 15.2 ± 0.8 days; Survival ratio T/C ([5]; VCR 100 μg/kg/day alone): 185%
